The values below come from patent US10336701B2, “Pyridin-2-one derivatives of formula (II) useful as EP3 receptor antagonists” (Janssen Pharmaceutica NV, priority 2017, dated 2019).

Assay [1] concerns the target T1, EP3 receptor (Homo sapiens, UniProt P43115).
T1 construct: purchased Millipore HTS092M
T1 sequence (P43115 1-390): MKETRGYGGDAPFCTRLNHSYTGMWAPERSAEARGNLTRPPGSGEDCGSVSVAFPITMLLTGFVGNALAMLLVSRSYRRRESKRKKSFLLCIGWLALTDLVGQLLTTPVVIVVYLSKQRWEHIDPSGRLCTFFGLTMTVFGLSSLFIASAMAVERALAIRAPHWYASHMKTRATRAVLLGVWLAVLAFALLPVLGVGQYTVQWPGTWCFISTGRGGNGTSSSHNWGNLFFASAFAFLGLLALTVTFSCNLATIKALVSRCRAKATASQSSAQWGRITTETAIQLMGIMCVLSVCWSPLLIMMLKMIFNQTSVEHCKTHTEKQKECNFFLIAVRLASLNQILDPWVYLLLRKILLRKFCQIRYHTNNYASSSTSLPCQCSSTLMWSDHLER
Kind of assay: CHO cell cAMP assay (forskolin and sulprostone stimulated, HTRF). Format: cell-based. As to conditions: CHO cells; sulprostone 700 nM (EC80) and FSK 2 μM (EC70), 37° C. for 30 minutes; read-out: CHO_cAMP IC50. A general note: Changes in cAMP serve as a functional read-out for many G protein-coupled receptors.

The target of assay [2] is T1, EP3 receptor. Description: [3H]-PGE2 binding assay (EP3 competition binding). Conditions: read-out: [3H]-PGE2 Binding Ki. In a few lines:
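Scintillation-bead competition binding with EP3 membranes (2 μg/well), 2 nM [3H]-PGE2, 0.1% DMSO, in 50 mM Tris, 10 mM MgCl2, 1 mM EDTA, pH 7.4.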

The term IC50 denotes the midpoint of a concentration-inhibition curve. As usually defined, the Ki is the equilibrium dissociation constant of an inhibitor or competing ligand from its target. On to `CC(C)C(C(=O)NCCN(C)C)c1ccc(-c2ccc3cc(F)ccc3c2)[nH]c1=O` (stereo not shown) [compound 242, N-(2-(dimethylamino)ethyl)-2-(6-(6-fluoronaphthalen-2-yl)-2-oxo-1,2-dihydropyridin-3-yl)-3-methylbutanamide], for which the 50% inhibitory concentration (IC50) at EP3 receptor [1] is 3960 nM. Moreover, at EP3 receptor [2], the inhibition constant (Ki) amounted to 398 nM.
Turning to `CC(C)C(C(=O)NCCN(C)C)c1ccc(-c2ccc3scnc3c2)[nH]c1=O` (stereo not shown) [compound 243, 2-(6-(benzo[d]thiazol-5-yl)-2-oxo-1,2-dihydropyridin-3-yl)-N-(2-(dimethylamino)ethyl)-3-methylbutanamide], the IC50 on EP3 receptor [1] is 14000 nM. Moreover, at EP3 receptor [2], the inhibition constant Ki was found to be 2600 nM.
For the molecule `CC(C)C(C(=O)NCCN(C)C)c1ccc(-c2ccc3c(c2)OCCN3C)[nH]c1=O` (stereo not shown) [compound 244, N-(2-(dimethylamino)ethyl)-3-methyl-2-(6-(4-methyl-3,4-dihydro-2H-benzo[b][1,4]oxazin-7-yl)-2-oxo-1,2-dihydropyridin-3-yl)butanamide], on EP3 receptor [1], the IC50 is 2390 nM. Also, the Ki at EP3 receptor [2] turned out to be 501 nM.
As for `CC(C)C(C(=O)NCCN(C)C)c1ccc(-c2ccc3ncsc3c2)[nH]c1=O` (stereo not shown) [compound 246, 2-(6-(benzo[d]thiazol-6-yl)-2-oxo-1,2-dihydropyridin-3-yl)-N-(2-(dimethylamino)ethyl)-3-methylbutanamide], the half-maximal inhibitory concentration (IC50) on EP3 receptor [1] was 17000 nM. Also, the inhibition constant Ki on EP3 receptor [2] is > 10000 nM.
`NC(=O)C1(c2ccc(-c3ccc4ccccc4c3)[nH]c2=O)CC=NN1` (stereo not shown) [compound 247, 5-(6-(naphthalen-2-yl)-2-oxo-1,2-dihydropyridin-3-yl)-4,5-dihydro-1H-pyrazole-5-carboxamide]: the half-maximal inhibitory concentration (IC50) at EP3 receptor [1] came out at 2400 nM. Moreover, the Ki on EP3 receptor [2] came to 771 nM.
On to `CC(C)C(CC(N)=O)c1ccc(-c2ccc3ccccc3c2)[nH]c1=O` (stereo not shown) [compound 249, 4-methyl-3-(6-(naphthalen-2-yl)-2-oxo-1,2-dihydropyridin-3-yl)pentanamide], for which the 50% inhibitory concentration (IC50) at EP3 receptor [1] was found to be 53 nM. Also, at EP3 receptor [2], the inhibitory constant (Ki) worked out at 5 nM.
With `CC(C)C(CC(=O)NS(C)(=O)=O)c1ccc(-c2ccc3ccccc3c2)[nH]c1=O` (stereo not shown) [compound 250, 4-methyl-N-(methylsulfonyl)-3-(6-(naphthalen-2-yl)-2-oxo-1,2-dihydropyridin-3-yl)pentanamide], the half-maximal inhibitory concentration (IC50) at EP3 receptor [1] was 931 nM. On EP3 receptor [2], the Ki is 69 nM.
Take `O=C1NC(=O)C(Cc2ccc(-c3ccc4cccc(F)c4c3)[nH]c2=O)O1` (stereo not shown) [compound 252, 5-((6-(8-fluoronaphthalen-2-yl)-2-oxo-1,2-dihydropyridin-3-yl)methyl)oxazolidine-2,4-dione]: the 50% inhibitory concentration (IC50) at EP3 receptor [1] is 499 nM. Further, at EP3 receptor [2], the Ki is 180 nM.
For `CC(C)C(Cc1ccc(-c2ccc3cccc(F)c3c2)[nH]c1=O)C(N)=O` (stereo not shown) [compound 253, 2-((6-(8-fluoronaphthalen-2-yl)-2-oxo-1,2-dihydropyridin-3-yl)methyl)-3-methylbutanamide], the IC50 at EP3 receptor [1] was found to be 59 nM. Moreover, the inhibition constant Ki at EP3 receptor [2] was 12 nM.
Consider `CC(C)C(CC(=O)Nc1nccs1)c1ccc(-c2ccc3cccc(F)c3c2)[nH]c1=O` (stereo not shown) [compound 254, 3-(6-(8-fluoronaphthalen-2-yl)-2-oxo-1,2-dihydropyridin-3-yl)-4-methyl-N-(thiazol-2-yl)pentanamide], for which, on EP3 receptor [1], the IC50 turned out to be 2740 nM. For the same molecule, the inhibitory constant (Ki) on EP3 receptor [2] amounted to 344 nM.
As for `CC(C)C(O)(CC(N)=O)c1ccc(-c2ccc3cccc(F)c3c2)[nH]c1=O` (stereo not shown) [compound 255, 3-(6-(8-fluoronaphthalen-2-yl)-2-oxo-1,2-dihydropyridin-3-yl)-3-hydroxy-4-methylpentanamide], the IC50 at EP3 receptor [1] stood at 115 nM. The Ki at EP3 receptor [2] was 9 nM.
With `CC(C)C(CC(=O)NS(=O)(=O)c1cc(Cl)c(Cl)s1)c1ccc(-c2ccc3cccc(F)c3c2)[nH]c1=O` (stereo not shown) [compound 256, N-(4,5-dichlorothiophen-2-ylsulfonyl)-3-(6-(8-fluoronaphthalen-2-yl)-2-oxo-1,2-dihydropyridin-3-yl)-4-methylpentanamide], the IC50 at EP3 receptor [1] is 579 nM. The inhibition constant Ki on EP3 receptor [2] is 164 nM.
As to `CONC(=O)CC(c1ccc(-c2ccc3cccc(F)c3c2)[nH]c1=O)C(C)C` (stereo not shown) [compound 257, 3-(6-(8-fluoronaphthalen-2-yl)-2-oxo-1,2-dihydropyridin-3-yl)-N-methoxy-4-methylpentanamide], at EP3 receptor [1], the IC50 worked out at 23 nM. The Ki at EP3 receptor [2] came out at 2 nM.
As to `CC(C)C(CC(=O)NCCO)c1ccc(-c2ccc3cccc(F)c3c2)[nH]c1=O` (stereo not shown) [compound 258, 3-(6-(8-fluoronaphthalen-2-yl)-2-oxo-1,2-dihydropyridin-3-yl)-N-(2-hydroxyethyl)-4-methyl pentanamide], the IC50 on EP3 receptor [1] is 136 nM. Further, at EP3 receptor [2], the inhibition constant (Ki) was found to be 8 nM.
On to `CC(C)C(CC(=O)NCCN(C)C)c1ccc(-c2ccc3cccc(F)c3c2)[nH]c1=O` (stereo not shown) [compound 259, N-(2-(dimethylamino)ethyl)-3-(6-(8-fluoronaphthalen-2-yl)-2-oxo-1,2-dihydropyridin-3-yl)-4-methylpentanamide], for which the IC50 on EP3 receptor [1] came to 242 nM. Moreover, the Ki on EP3 receptor [2] was found to be 28 nM.
On to `CC(C)C(CC(=O)Nc1ncc[nH]1)c1ccc(-c2ccc3cccc(F)c3c2)[nH]c1=O` (stereo not shown) [compound 261, 3-(6-(8-fluoronaphthalen-2-yl)-2-oxo-1,2-dihydropyridin-3-yl)-N-(1H-imidazol-2-yl)-4-methylpentanamide], for which the IC50 on EP3 receptor [1] turned out to be 24 nM. Further, the inhibitory constant (Ki) at EP3 receptor [2] turned out to be 20 nM.
The corresponding values for `CC(C)C1(Cc2ccc(-c3ccc4cccc(F)c4c3)[nH]c2=O)NC(=O)NC1=O` (stereo not shown) [compound 263, 5-((6-(8-fluoronaphthalen-2-yl)-2-oxo-1,2-dihydropyridin-3-yl)methyl)-5-isopropylimidazolidine-2,4-dione] are 336 nM and 108 nM.
Take `CC(C)C(c1ccc(-c2ccc3cccc(F)c3c2)[nH]c1=O)N(C)C(N)=O` (stereo not shown) [compound 265, 1-(1-(6-(8-fluoronaphthalen-2-yl)-2-oxo-1,2-dihydropyridin-3-yl)-2-methylpropyl)-1-methylurea]: the concentration for half-maximal inhibition (IC50) on EP3 receptor [1] is 249 nM. Also, the inhibitory constant (Ki) on EP3 receptor [2] was 34 nM.
In the case of `CC(C)C(NC(=O)NCCN(C)C)c1ccc(-c2ccc3cccc(F)c3c2)[nH]c1=O` (stereo not shown) [compound 266, 1-(2-(dimethylamino)ethyl)-3-(1-(6-(8-fluoronaphthalen-2-yl)-2-oxo-1,2-dihydropyridin-3-yl)-2-methylpropyl)urea], the IC50 at EP3 receptor [1] came to 736 nM. At EP3 receptor [2], the Ki was determined as 28 nM.
In the case of `CC(C)C(NC(N)=O)c1ccc(-c2ccc3cccc(F)c3c2)[nH]c1=O` (stereo not shown) [compound 267, 1-(1-(6-(8-fluoronaphthalen-2-yl)-2-oxo-1,2-dihydropyridin-3-yl)-2-methylpropyl)urea], the IC50 on EP3 receptor [1] was 14 nM. Further, the Ki on EP3 receptor [2] was 6 nM.
The corresponding values for `CC(C)C(N/C(N)=N/C#N)c1ccc(-c2ccc3cccc(F)c3c2)[nH]c1=O` (stereo not shown) [compound 268, (E)-2-cyano-1-(1-(6-(8-fluoronaphthalen-2-yl)-2-oxo-1,2-dihydropyridin-3-yl)-2-methylpropyl)quanidine] are 17 nM and 6 nM.
As to `CC(C)C(Cc1ccc(-c2ccc3cccc(F)c3c2)[nH]c1=O)c1nnn[nH]1` (stereo not shown) [compound 270, 6-(8-Fluoronaphthalen-2-yl)-3-(3-methyl-2-(1H-tetrazol-5-yl)butyl)pyridin-2(1H)-one], the 50% inhibitory concentration (IC50) at EP3 receptor [1] is 540 nM. Also, the Ki on EP3 receptor [2] turned out to be 164 nM.
With `CCOC(=O)C(=C1CCCCC1)c1ccc(-c2ccc3ccccc3c2)[nH]c1=O` [compound 281, ethyl 2-cyclohexylidene-2-(6-(naphthalen-2-yl)-2-oxo-1,2-dihydropyridin-3-yl)acetate], the 50% inhibitory concentration (IC50) at EP3 receptor [1] was determined as 527 nM. Further, the Ki at EP3 receptor [2] came out at 37 nM.
Consider `CC1(c2ccc(-c3ccc4ccccc4c3)[nH]c2=O)CNS(=O)(=O)N1` (stereo not shown) [compound 282, 3-(3-methyl-1,1-dioxido-1,2,5-thiadiazolidin-3-yl)-6-(naphthalen-2-yl)pyridin-2(1H)-one], for which the concentration for half-maximal inhibition (IC50) on EP3 receptor [1] worked out at 900 nM. Besides, the Ki at EP3 receptor [2] came out at 740 nM.
Take `CC1(c2ccc(-c3ccc4ccccc4c3)[nH]c2=O)CN/C(=N\C#N)N1` (stereo not shown) [compound 283]: the IC50 at EP3 receptor [1] was found to be 180 nM. Also, the Ki on EP3 receptor [2] turned out to be 49 nM.
Consider `CC1(c2ccc(-c3ccc4ccccc4c3)[nH]c2=O)CNC(=S)N1` (stereo not shown) [compound 286, 4-[2-hydroxy-6-(naphthalen-2-yl)pyridin-3-yl]-4-methylimidazolidine-2-thione], for which, at EP3 receptor [1], the IC50 was 179 nM. Moreover, the Ki at EP3 receptor [2] worked out at 64 nM.
Turning to `CC1(c2ccc(-c3ccc4ccccc4c3)[nH]c2=O)CNC(N)=N1` (stereo not shown) [compound 287, 3-(2-amino-4-methyl-4,5-dihydro-1H-imidazol-4-yl)-6-(naphthalen-2-yl)pyridin-2(1H)-one], the IC50 on EP3 receptor [1] is 8680 nM. For the same molecule, the inhibition constant (Ki) on EP3 receptor [2] amounted to 157 nM.
Take `CC1(c2ccc(-c3ccc4ccccc4c3)[nH]c2=O)CN/C(=N\O)N1` (stereo not shown) [compound 288, 3-[(2E)-2-(hydroxyimino)-4-methylimidazolidin-4-yl]-6-(naphthalen-2-yl)-1,2-dihydropyridin-2-one]: the IC50 on EP3 receptor [1] is 656 nM. Further, the Ki at EP3 receptor [2] is 180 nM.
In the case of `CN(C)C1=NC(C)(c2ccc(-c3ccc4ccccc4c3)[nH]c2=O)CN1` (stereo not shown) [compound 289, 3-[2-(dimethylamino)-4-methyl-4,5-dihydro-1H-imidazol-4-yl]-6-(naphthalen-2-yl)-1,2-dihydropyridin-2-one], the IC50 on EP3 receptor [1] is > 20000 nM. Moreover, the Ki at EP3 receptor [2] was 1800 nM.
